Data published in patent publication US12139499B2, “Heteroaryl compounds for treating Huntington's disease” (PTC THERAPEUTICS, INC., priority 2018, dated 2024).
pIC50: −log10 of the molar value.

tested on: Endogenous Huntingtin Protein; assay: Endogenous Huntingtin Protein Assay (ELISA-based MSD electrochemiluminescence); type: cell-based; details: Table 1
In short: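 Huntingtin was captured overnight at 4 °C on plates coated with 1 μg/mL MW1 (polyQ-expanded) or MAB2166 antibody and BSA-blocked. Detection used a rabbit monoclonal and then a SULFO-TAG goat anti-rabbit antibody (0.25 μg/mL, 1 h each, room temperature). Signal was read by electrochemiluminescence.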

SMILES | pIC50
Cc1cn2cc(-c3cnc4nc(OC5CC(C)(C)NC(C)(C)C5)sc4n3)cc(C#N)c2n1 [Compound 181, 2-methyl-6-{2-[(2,2,6,6-tetramethylpiperidin-4-yl)oxy][1,3]thiazolo[4,5-b]pyrazin-6-yl}imidazo[1,2-a]pyridine-8-carbonitrile] | 6.30 to 7.00
Cc1cn2nc(-c3cnc4nc(N5CCNCC5)sc4n3)ccc2n1 [Compound 182, 6-(2-methylimidazo[1,2-b]pyridazin-6-yl)-2-(piperazin-1-yl)[1,3]thiazolo[4,5-b]pyrazine] | 6.00 to 6.30
Cc1cn2cc(-c3ncc4nc(N(C)C5CC(C)(C)NC(C)(C)C5)sc4n3)cc(C)c2n1 [Compound 183, 5-(2,8-dimethylimidazo[1,2-a]pyridin-6-yl)-N-methyl-N-(2,2,6,6-tetramethylpiperidin-4-yl)[1,3]thiazolo[5,4-d]pyrimidin-2-amine] | ≥ 7.00
Cc1cn2nc(-c3ncc4nc(N(C)C5CC(C)(C)NC(C)(C)C5)sc4n3)cc(C)c2n1 [Compound 184, 5-(2,8-dimethylimidazo[1,2-b]pyridazin-6-yl)-N-methyl-N-(2,2,6,6-tetramethylpiperidin-4-yl)[1,3]thiazolo[5,4-d]pyrimidin-2-amine] | 5.52 to 6.00
Cc1cn2nc(-c3cc(F)c4nc(N(C)C5CCNCC5)sc4c3)ccc2n1 [Compound 185, 4-fluoro-N-methyl-6-(2-methylimidazo[1,2-b]pyridazin-6-yl)-N-(piperidin-4-yl)-1,3-benzothiazol-2-amine] | ≥ 7.00
Cc1cn2nc(-c3cc(F)c4nc(N(C)C5CCNCC5)sc4c3)cc(C)c2n1 [Compound 186, 6-(2,8-dimethylimidazo[1,2-b]pyridazin-6-yl)-4-fluoro-N-methyl-N-(piperidin-4-yl)-1,3-benzothiazol-2-amine] | ≥ 7.00
Cc1cn2nc(-c3cc(F)c4nc(C5CCNCC5)sc4c3)cc(OCc3ccccc3)c2n1 [Compound 187, 8-(benzyloxy)-6-[4-fluoro-2-(piperidin-4-yl)-1,3-benzothiazol-6-yl]-2-methylimidazo[1,2-b]pyridazine] | ≥ 7.00
Cc1cn2nc(-c3cc(F)c4nc(C5CCNCC5)sc4c3)cc(N)c2n1 [Compound 188, 6-[4-fluoro-2-(piperidin-4-yl)-1,3-benzothiazol-6-yl]-2-methylimidazo[1,2-b]pyridazin-8-amine] | ≥ 7.00
Cc1cn2nc(-c3cc(F)c4nc(C5CCNCC5)sc4c3)cc(O)c2n1 [Compound 189, 6-[4-fluoro-2-(piperidin-4-yl)-1,3-benzothiazol-6-yl]-2-methylimidazo[1,2-b]pyridazin-8-ol] | 6.30 to 7.00
CC1CC(c2nc3ccc(-c4ccc5nn(C)cc5c4)cc3s2)CC(C)N1 (stereo not drawn) [Compound 190, 2-(2,6-dimethylpiperidin-4-yl)-6-(2-methyl-2H-indazol-5-yl)-1,3-benzothiazole] | 5.52 to 6.00
COc1cc(-c2cc(F)c3nc(C4CCNCC4)sc3c2)ccc1F [Compound 191, 4-fluoro-6-(4-fluoro-3-methoxyphenyl)-2-(piperidin-4-yl)-1,3-benzothiazole] | 5.52 to 6.00
Cc1cn2nc(-c3cc(F)c4nc(N(C)C5CC6CCC(C5)N6)sc4c3)cc(C)c2n1 (stereo not drawn) [Compound 192, N-[(3-exo)-8-azabicyclo[3.2.1]oct-3-yl]-6-(2,8-dimethylimidazo[1,2-b]pyridazin-6-yl)-4-fluoro-N-methyl-1,3-benzothiazol-2-amine] | ≥ 7.00
CN(c1nc2cnc(-c3cc(C#N)c4nn(C)cc4c3)nc2s1)C1CCNCC1 [Compound 193, 2-methyl-5-{2-[methyl(piperidin-4-yl)amino][1,3]thiazolo[5,4-d]pyrimidin-5-yl}-2H-indazole-7-carbonitrile] | ≥ 7.00
Cc1cn2nc(-c3cc(F)c4nc(C56CCN(CC5)CC6)sc4c3)cc(C)c2n1 [Compound 194, 6-[2-(1-azabicyclo[2.2.2]oct-4-yl)-4-fluoro-1,3-benzothiazol-6-yl]-2,8-dimethylimidazo[1,2-b]pyridazine] | ≥ 7.00
Cc1cn2nc(-c3cc(F)c4nc(C5CCNCC5)sc4c3)cc(Oc3ccccc3)c2n1 [Compound 195, 6-[4-fluoro-2-(piperidin-4-yl)-1,3-benzothiazol-6-yl]-2-methyl-8-phenoxyimidazo[1,2-b]pyridazine] | ≥ 7.00
Cc1cn2cc(-c3ncc4nc(N(C)C5CCNCC5)sc4n3)cc(C#N)c2n1 [Compound 196, 2-methyl-6-{2-[methyl(piperidin-4-yl)amino][1,3]thiazolo[5,4-d]pyrimidin-5-yl}imidazo[1,2-a]pyridine-8-carbonitrile] | ≥ 7.00
COc1cc(-c2ncc3nc(N(C)C4CC(C)(C)NC(C)(C)C4)sc3n2)cc2cn(C)nc12 [Compound 197, 5-(7-methoxy-2-methyl-2H-indazol-5-yl)-N-methyl-N-(2,2,6,6-tetramethylpiperidin-4-yl)[1,3]thiazolo[5,4-d]pyrimidin-2-amine] | 6.30 to 7.00

SMILES | pIC50
Cc1cn2cc(-c3cc4sc(N(C)C5CCNCC5)nc4cn3)cc(C#N)c2n1 [Compound 198, 2-methyl-6-{2-[methyl(piperidin-4-yl)amino][1,3]thiazolo[4,5-c]pyridin-6-yl}imidazo[1,2-a]pyridine-8-carbonitrile] | ≥ 7.00
Cc1cn2cc(-c3cc4sc(NC5CC6CCC(C5)N6)nc4cn3)cc(C#N)c2n1 (stereo not drawn) [Compound 199, 6-{2-[(3-exo)-8-azabicyclo[3.2.1]oct-3-ylamino][1,3]thiazolo[4,5-c]pyridin-6-yl}-2-methylimidazo[1,2-a]pyridine-8-carbonitrile] | ≥ 7.00
COc1cc(-c2cc(F)c3nc(N(C)C4CC(C)(C)NC(C)(C)C4)sc3c2)nn2cc(C)nc12 [Compound 200, 4-fluoro-6-(8-methoxy-2-methylimidazo[1,2-b]pyridazin-6-yl)-N-methyl-N-(2,2,6,6-tetramethylpiperidin-4-yl)-1,3-benzothiazol-2-amine] | ≥ 7.00
Cc1cn2nc(-c3cc(F)c4nc(N(C)C5CC(C)(C)NC(C)(C)C5)sc4c3)cc(N)c2n1 [Compound 201, 6-{4-fluoro-2-[methyl(2,2,6,6-tetramethylpiperidin-4-yl)amino]-1,3-benzothiazol-6-yl}-2-methylimidazo[1,2-b]pyridazin-8-amine] | 6.30 to 7.00
COc1cc(-c2cc(F)c3nc(N(C)C4CCNCC4)sc3c2)nn2cc(C)nc12 [Compound 202, 4-fluoro-6-(8-methoxy-2-methylimidazo[1,2-b]pyridazin-6-yl)-N-methyl-N-(piperidin-4-yl)-1,3-benzothiazol-2-amine] | ≥ 7.00
Cc1cn2cc(-c3cc4sc(N(C)C5CC6CCC(C5)N6)nc4cn3)cc(C#N)c2n1 (stereo not drawn) [Compound 203, 6-{2-[(3-exo)-8-azabicyclo[3.2.1]oct-3-yl(methyl)amino][1,3]thiazolo[4,5-c]pyridin-6-yl}-2-methylimidazo[1,2-a]pyridine-8-carbonitrile] | ≥ 7.00
Cc1cn2cc(-c3cc4sc(N(C)C5CC6CCC(C5)N6)nc4cn3)cc(F)c2n1 (stereo not drawn) [Compound 204, N-[(3-exo)-8-azabicyclo[3.2.1]oct-3-yl]-6-(8-fluoro-2-methylimidazo[1,2-a]pyridin-6-yl)-N-methyl[1,3]thiazolo[4,5-c]pyridin-2-amine] | ≥ 7.00
CN(c1nc2cnc(-c3cc(F)c4nn(C)cc4c3)cc2s1)C1CC2CCC(C1)N2 (stereo not drawn) [Compound 205, N-[(3-exo)-8-azabicyclo[3.2.1]oct-3-yl]-6-(7-fluoro-2-methyl-2H-indazol-5-yl)-N-methyl[1,3]thiazolo[4,5-c]pyridin-2-amine] | ≥ 7.00
CN(c1nc2cnc(-c3cc(C#N)c4nn(C)cc4c3)cc2s1)C1CC2CCC(C1)N2 (stereo not drawn) [Compound 206, 5-{2-[(3-exo)-8-azabicyclo[3.2.1]oct-3-yl(methyl)amino][1,3]thiazolo[4,5-c]pyridin-6-yl}-2-methyl-2H-indazole-7-carbonitrile] | ≥ 7.00
Cc1cn2cc(-c3ncc4nc(N(C)C5CC6CCC(C5)N6)sc4n3)cc(C#N)c2n1 (stereo not drawn) [Compound 207, 6-{2-[(3-exo)-8-azabicyclo[3.2.1]oct-3-yl(methyl)amino][1,3]thiazolo[5,4-d]pyrimidin-5-yl}-2-methylimidazo[1,2-a]pyridine-8-carbonitrile] | ≥ 7.00
CN(c1nc2cnc(-c3cc(C#N)c4nn(C)cc4c3)nc2s1)C1CC2CCC(C1)N2 (stereo not drawn) [Compound 208, 5-{2-[(3-exo)-8-azabicyclo[3.2.1]oct-3-yl(methyl)amino][1,3]thiazolo[5,4-d]pyrimidin-5-yl}-2-methyl-2H-indazole-7-carbonitrile] | ≥ 7.00
Cc1cn2nc(-c3cc(F)c4nc(N(C)C5CC6CCC(C5)N6)sc4c3)ccc2n1 (stereo not drawn) [Compound 209, N-[(3-exo)-8-azabicyclo[3.2.1]oct-3-yl]-4-fluoro-N-methyl-6-(2-methylimidazo[1,2-b]pyridazin-6-yl)-1,3-benzothiazol-2-amine] | ≥ 7.00
Cc1cn2nc(-c3cc(F)c4nc(C5(C)CCNCC5)sc4c3)cc(C)c2n1 [Compound 210, 6-[4-fluoro-2-(4-methylpiperidin-4-yl)-1,3-benzothiazol-6-yl]-2,8-dimethylimidazo[1,2-b]pyridazine] | 6.00 to 6.30
Cn1cc2cc(-c3cc4sc(NC5CC6CCC(C5)N6)nc4cn3)cc(F)c2n1 (stereo not drawn) [Compound 211, N-[(3-exo)-8-azabicyclo[3.2.1]oct-3-yl]-6-(7-fluoro-2-methyl-2H-indazol-5-yl)[1,3]thiazolo[4,5-c]pyridin-2-amine] | ≥ 7.00
Cc1cn2cc(-c3cc4sc(NC5CC6CCC(C5)N6)nc4cn3)cc(F)c2n1 (stereo not drawn) [Compound 212, N-[(3-exo)-8-azabicyclo[3.2.1]oct-3-yl]-6-(8-fluoro-2-methylimidazo[1,2-a]pyridin-6-yl)[1,3]thiazolo[4,5-c]pyridin-2-amine] | ≥ 7.00
Cn1cc2cc(-c3cc4sc(NC5CC6CCC(C5)N6)nc4cn3)cc(C#N)c2n1 (stereo not drawn) [Compound 213, 5-{2-[(3-exo)-8-azabicyclo[3.2.1]oct-3-ylamino][1,3]thiazolo[4,5-c]pyridin-6-yl}-2-methyl-2H-indazole-7-carbonitrile] | ≥ 7.00
